Tests used:
[1] = test system: PC3 cells; experiment: Internalization and efflux assay in PC3 cells (125I-BBN, 177Lu complexes); format: cell-based, human; settings: 37° C., 125I-BBN and Lu-177 complexes; for Efflux (2 h): after 40 min loading
Experimental: These studies were conducted in a 96-well plate. […] Incubations were stopped by the addition of 200 μl of ice-cold binding buffer. Plates were washed twice with binding buffer. To remove surface-bound radioligand, the cells were incubated with 0.2M acetic acid (in saline), pH 2.8 for 2 min. Plates were centrifuged and the acid wash media were collected to determine the amount of radioactivity which was not internalized. The cells were collected to determine the amount of internalized ^125I-BBN, and all samples were analyzed in the gamma counter. Data for the internalization assay was normalized by comparing counts obtained at the various time points with the counts obtained at the final time point (T=40 min).
For the efflux studies, after loading the PC3 cells with ^125I-BBN or radiolabeled compounds of the invention for 40 min at 37° C., the unbound material was filtered, and the % of internalization was determined as above. The cells were then resuspended in binding buffer at 37° C. for up to 3 h.

[2] = test system: PC3 tumor-bearing nude mouse model; experiment: Radiotherapy efficacy studies (short and long term survival); format: in vivo; settings: 177Lu labeled; for survival, Short Term Efficacy Study: 30 mCi/kg i.v. or s.c., versus untreated control and DO3A-monoamide-Aoc-QWAVGHLM-NH2 control; for survival, Long Term Efficacy Study: 30 mCi/kg, up to 120 days, n=46, p<0.0001 versus controls
Experimental: Radiotherapy studies were performed using the PC3 tumor-bearing nude mouse model. […] (n=12 for each treatment group for up to days, and n=36 for the pooled untreated control group for up to 31 days). […] The subjects were housed in a barrier environment for the duration of the study. Body weight and tumor size (by caliper measurement) were collected on each subject 3 times per week for the duration of the study. Criteria for early termination included: death; loss of total body weight (TBW) equal to or greater than 20%; tumor size equal to or greater than 2 cm^3.

[3] = target: T1, NMB-R (Rattus norvegicus, UniProt P24053); experiment: Competition with 125I-NMB for NMB-R in C6 cells; format: binding, rodent; settings: cut off 10× the IC50 of [Tyr4]-BBN; for GRP-R and NMB-R (binds both with similar affinity): class from IC50 with 125I-NMB on C6 cells; for receptor subtype preference (GRP-R versus NMB-R): from IC50 with 125I-NMB on C6 cells and 125I-BBN on PC3 cells
T1 construct: C6, an NMB-R expressing rodent glioblastoma cell line; host or cells: C6 glioma cells (intact, plated)
T1 sequence (P24053 1-390): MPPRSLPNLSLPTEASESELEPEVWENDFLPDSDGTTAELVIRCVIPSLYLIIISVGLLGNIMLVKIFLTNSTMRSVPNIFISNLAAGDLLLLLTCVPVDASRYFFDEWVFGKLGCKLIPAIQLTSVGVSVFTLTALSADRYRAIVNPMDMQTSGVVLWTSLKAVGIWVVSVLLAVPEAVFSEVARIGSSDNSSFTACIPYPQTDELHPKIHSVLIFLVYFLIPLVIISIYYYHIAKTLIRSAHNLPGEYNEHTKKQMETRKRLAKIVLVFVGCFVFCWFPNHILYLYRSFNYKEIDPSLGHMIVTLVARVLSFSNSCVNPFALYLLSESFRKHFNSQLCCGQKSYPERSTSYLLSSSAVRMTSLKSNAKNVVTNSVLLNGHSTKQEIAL
Experimental: Two cell lines, C6, an NMB-R expressing rodent glioblastoma cell line and PC3, a GRP-R expressing human prostate cancer cell line, were used in this assay. The affinity of various unlabeled compounds for each receptor subtype (NMB-R and GRP-R) was determined indirectly by measuring its ability to compete with the binding of ^125I-NMB or ^125I-BBN to its corresponding receptors in C6 and PC3 cells.
Cells for the assays were plated at a concentration of 9.6×10^4/well in 48 well poly-lysine coated plates (Beckton Dickinson Biocoat). PC3 were obtained from ATCC(CRL-1435) and cultured in RPMI 1640 (ATCC) supplemented with 2 mM L-glutamine, 1.5 g/L Sodium bicarbonate, 10 mM HEPES and 10% FBS. […] PC3 cells for the assays were plated at a concentration of 2.0×10^4 cells/well in 96-well white/clear bottom plates (Falcon Optilux-I). Plates were used for the assays on day 2 of the post-plating.
RPMI 1640 (ATCC) containing 25 mM HEPES, 0.2% BSA fraction V, 1.0 mM AEBSF (CAS #3087-99-7) and 0.1% Bacitracin (CAS #1405-87-4), pH 7.4. Custom made ^125I-[Tyr°]NMB, >2.0 Ci/mole (Amersham Life Science) [^125I-NMB] and commercially available ^125I-[Tyr^4]BBN, >2.0 Ci/mole (Perkin Elmer Life Science) [^125I-BBN] were used as radioligands.
Using a 48-well plate assay system (for C6 study) competition experiments were performed using ^125I-NMB. […] Selection of compounds for the assay was based on linker subtype.
The binding parameters obtained from the studies were analyzed using a one-site competition non-linear regression analysis with GraphPad Prism. The relative affinity of various compounds for NMB-R in C6 cells were compared with those obtained using commercially available [Tyr^4]-BBN and [Tyro]-NMB. To distinguish the GRP-R preferring compounds from NMB-R plus GRP-R preferring compounds, IC50 values obtained for each compound were compared with those obtained from [Tyr^4-BBN with ^125I-NMB on C6 cells.

[4] = test system: GRP receptor binding in T47D human breast cancer cells; experiment: Effect of drug treatment on GRP receptor binding (177Lu-AMBA) and proliferation in T-47D cells; format: cell-based; settings: for change in 177Lu-AMBA binding (GRP receptor specific signal per cell), T47D: Table 25, range 0.001-0.1 μM, vs untreated controls; for decrease in 177Lu-AMBA binding (GRP receptor specific signal per cell) / increase in 177Lu-AMBA binding (GRP receptor specific signal per cell): relative to untreated control; for decrease in 177Lu-AMBA binding (GRP receptor specific signal per cell): drug 0.1-1.0 μM (4-OH Tamoxifen 0.001-0.1 μM); for increase in 177Lu-AMBA binding (GRP receptor specific signal per cell): drug 0.1-1.0 μM (gefitinib 0.1-10 μM); for GRP receptor specific signal per cell (177Lu-AMBA binding) versus untreated controls, in words: drug 0.1-1.0 μM (β2-estradiol 1 nM)
Excerpt: T-47D breast cancer cells (human metastatic mammary gland ductal adenocarcinoma isolated from pleural effusion, ER+, PR+) were obtained from the American Type Culture Collection.

[5] = test system: GRP receptor binding in BT-474 human breast cancer cells; experiment: Effect of drug treatment on GRP receptor binding (177Lu-AMBA) and proliferation in BT-474 cells; settings: for change in 177Lu-AMBA binding (GRP receptor specific signal per cell), BT-474: Table 25, range 0.001-0.1 μM, vs untreated controls; for GRP receptor specific signal per cell (177Lu-AMBA binding) versus untreated controls, in words: drug 0.1-1.0 μM (gefitinib 0.1-10 μM); for decrease in 177Lu-AMBA binding (GRP receptor specific signal per cell): relative to untreated control, drug 0.1-1.0 μM (4-OH Tamoxifen 0.001-0.1 μM)
Experimental: Cells for binding experiments were plated on Day 0 at 5.6×10^4 cells/cm^2 in 96-well white/clear bottom microtiter plates (Falcon Optilux-I), or 96 well black/clear collagen I cellware plates (Beckton Dickinson Biocoat).
(§1) RPMI 1640 supplemented with 20 mM HEPES, 0.1% BSA (w/v), 0.5 mM PMSF (AEBSF), bacitracin (50 mg/500 ml), pH 7.4.
(§2) Treatment: BT-474 cells were plated on Day 0 (see above); approximately 24-48 h after plating, treatment Days 1 and 2 (DT1, DT2), the medium was removed and replaced with fresh growth medium (control), or growth medium with the addition of lapatinib (0.1-1.0 μM). […] Incubations were stopped by the addition of 200 μL of ice-cold binding buffer. Plates were washed three more times with binding buffer, 140 μL of scintillation fluid was added to each well, the plates were sealed and analyzed on a Microp plate reader (Microbeta Trilux, Perkin-Elmer).
(§3) Treatment: BT-474 cells were plated on Day 0 and treated on Days 1 and 2 (DT1, DT2).

[6] = test system: GRP receptor binding in PC-3 prostate cancer cells; experiment: Effect of drug treatment on GRP receptor binding (177Lu-AMBA) and proliferation in PC-3 cells; settings: for change in 177Lu-AMBA binding (GRP receptor specific signal per cell), PC-3: Table 25, range 0.001-0.1 μM, vs untreated controls; for decrease in 177Lu-AMBA binding (GRP receptor specific signal per cell): drug 0.1-1.0 μM (gefitinib 0.1-10 μM); for GRP receptor specific signal per cell (177Lu-AMBA binding) versus untreated controls, in words: drug 0.1-1.0 μM (4-OH Tamoxifen 0.001-0.1 μM)
Experimental: as §1, §2, §3

[7] = PC-3, relative to untreated control

CSCC[C@H](NC(=O)[C@H](CC(C)C)NC(=O)[C@H](Cc1c[nH]cn1)NC(=O)CNC(=O)[C@@H](NC(=O)[C@H](C)NC(=O)[C@H](Cc1c[nH]c2ccccc12)NC(=O)[C@H](CCC(N)=O)NC(=O)CC[C@@H](C)[C@H]1CC[C@H]2[C@@H]3CC[C@@H]4C[C@@H](NC(=O)CNC(=O)CN5CCN(CC(=O)O)CCN(CC(=O)O)CCN(CC(=O)O)CC5)CC[C@]4(C)[C@H]3C[C@H](O)[C@]12C)C(C)C)C(N)=O [Compound L63, N-[(3β,5β,12α)-3-[[[[[4,7,10-Tris(carboxymethyl)-1,4,7,10-tetraazacyclododec-1-yl]acetyl]amino]acetyl]amino]-12-hydroxy-24-oxocholan-24-yl]-L-glutaminyl-L-tryptophyl-L-alanyl-L-valyl-glycyl-L-histidyl-L-leucyl-L-methioninamide]
Internalisation (40 minutes) [1]: 64% | Efflux (2 h) [1]: 0% | survival, Short Term Efficacy Study [2]: increased survival | GRP-R and NMB-R (binds both with similar affinity) [3]: yes | receptor subtype preference (GRP-R versus NMB-R) [3]: dual affinity for both GRP-R and NMB-R

CSCC[C@H](NC(=O)[C@H](CC(C)C)NC(=O)[C@H](Cc1c[nH]cn1)NC(=O)CNC(=O)[C@@H](NC(=O)[C@H](C)NC(=O)[C@H](Cc1c[nH]c2ccccc12)NC(=O)[C@H](CCC(N)=O)NC(=O)CC[C@@H](C)[C@H]1CC[C@H]2[C@@H]3[C@H](O)C[C@@H]4C[C@@H](NC(=O)CNC(=O)CN5CCN(CC(=O)O)CCN(CC(=O)O)CCN(CC(=O)O)CC5)CC[C@]4(C)[C@H]3C[C@H](O)[C@]12C)C(C)C)C(N)=O [Compound L64, N-[(3β,5β,7α,12α)-3-[[[[[4,7,10-Tris(carboxymethyl)-1,4,7,10-tetraazacyclododec-1-yl]acetyl]amino]acetyl]amino]-7,12-dihydroxy-24-oxocholan-24-yl]-L-glutaminyl-L-tryptophyl-L-alanyl-L-valyl-glycyl-L-histidyl-L-leucyl-L-methioninamide]
Internalisation (40 minutes) [1]: 69% | Efflux (2 h) [1]: 20% | survival, Short Term Efficacy Study [2]: increased survival | survival, Long Term Efficacy Study [2]: significantly increased survival | GRP-R and NMB-R (binds both with similar affinity) [3]: yes | receptor subtype preference (GRP-R versus NMB-R) [3]: dual affinity for both GRP-R and NMB-R

CC/C(=C(\c1ccc(O)cc1)c1ccc(OCCN(C)C)cc1)c1ccccc1 [Compounds 4-OH-Tamoxifen]
change in 177Lu-AMBA binding (GRP receptor specific signal per cell), T47D [4]: −35% | change in 177Lu-AMBA binding (GRP receptor specific signal per cell), BT-474 [5]: −73% | change in 177Lu-AMBA binding (GRP receptor specific signal per cell), PC-3 [6]: 0%

CC(C)(C#N)c1cc(Cn2cncn2)cc(C(C)(C)C#N)c1 [anastrozole]
decrease in 177Lu-AMBA binding (GRP receptor specific signal per cell) ([4]; T-47D): up to 10% | GRP receptor specific signal per cell (177Lu-AMBA binding) versus untreated controls, in words ([5]; BT-474): no change | decrease in 177Lu-AMBA binding (GRP receptor specific signal per cell) [6, 7]: up to 10%

CC(C)C[C@H](NC(=O)[C@H](Cc1ccccc1)NC(=O)c1cnccn1)B(O)O [bortezomib]
decrease in 177Lu-AMBA binding (GRP receptor specific signal per cell) ([4]; T-47D): up to 50% | decrease in 177Lu-AMBA binding (GRP receptor specific signal per cell) ([5]; BT-474): up to 50% | decrease in 177Lu-AMBA binding (GRP receptor specific signal per cell) [6, 7]: up to 60%

C#Cc1cccc(Nc2ncnc3cc(OCCOC)c(OCCOC)cc23)c1 [erlotinib]
increase in 177Lu-AMBA binding (GRP receptor specific signal per cell) ([4]; T-47D): 5-20% | GRP receptor specific signal per cell (177Lu-AMBA binding) versus untreated controls, in words ([5]; BT-474): no change | decrease in 177Lu-AMBA binding (GRP receptor specific signal per cell) [6, 7]: 5-20%

COc1cc2ncnc(Nc3ccc(F)c(Cl)c3)c2cc1OCCCN1CCOCC1 [gefitinib]
increase in 177Lu-AMBA binding (GRP receptor specific signal per cell) ([4]; T-47D): up to 20% | GRP receptor specific signal per cell (177Lu-AMBA binding) versus untreated controls, in words ([5]; BT-474): no change | decrease in 177Lu-AMBA binding (GRP receptor specific signal per cell) [6, 7]: 20-40%

Cc1ccc(NC(=O)c2ccc(CN3CCN(C)CC3)cc2)cc1Nc1nccc(-c2cccnc2)n1 [imatinib]
increase in 177Lu-AMBA binding (GRP receptor specific signal per cell) ([4]; T-47D): up to 15% | GRP receptor specific signal per cell (177Lu-AMBA binding) versus untreated controls, in words ([5]; BT-474): no change | decrease in 177Lu-AMBA binding (GRP receptor specific signal per cell) [6, 7]: 15-25%

CS(=O)(=O)CCNCc1ccc(-c2ccc3ncnc(Nc4ccc(OCc5cccc(F)c5)c(Cl)c4)c3c2)o1 [lapatinib]
decrease in cell proliferation ([4]; T-47D, at the highest concentration): ≤ 35% | increase in 177Lu-AMBA binding (GRP receptor specific signal per cell) ([4]; T-47D): up to 50% | decrease in cell proliferation ([5]; BT-474, at the highest concentration): ≤ 65% | proliferation versus untreated controls, in words ([6]; PC-3, 0.1-1.0 μM): no change | GRP receptor specific signal per cell (177Lu-AMBA binding) versus untreated controls, in words ([6]; PC-3): no change

CNC(=O)c1cc(Oc2ccc(NC(=O)Nc3ccc(Cl)c(C(F)(F)F)c3)cc2)ccn1 [sorafenib]
GRP receptor specific signal per cell (177Lu-AMBA binding) versus untreated controls, in words ([4]; T-47D): no change | change in 177Lu-AMBA uptake on a viable cell basis, T47D ([4]; Table 24, drug 0.1-1.0 μM (gefitinib 0.1-10, bortezomib 0.001-0.1), vs untreated control): NC (NC: Little (<10%) or no change in Lu-AMBA uptake) | decrease in 177Lu-AMBA binding (GRP receptor specific signal per cell) ([5]; BT-474): 10-25% | decrease in 177Lu-AMBA binding (GRP receptor specific signal per cell) [6, 7]: 10-20%

CCN(CC)CCNC(=O)c1c(C)[nH]c(/C=C2\C(=O)Nc3ccc(F)cc32)c1C [sunitinib]
increase in 177Lu-AMBA binding (GRP receptor specific signal per cell) ([4]; T-47D): up to 13% | decrease in 177Lu-AMBA binding (GRP receptor specific signal per cell) ([5]; BT-474): up to 8% | increase in 177Lu-AMBA binding (GRP receptor specific signal per cell) ([6]; PC-3, relative to untreated control, drug 0.1-1.0 μM): up to 10%

C[C@]12CC[C@@H]3c4ccc(O)cc4CC[C@H]3[C@@H]1CC[C@@H]2O [β2-estradiol]
GRP receptor specific signal per cell (177Lu-AMBA binding) versus untreated controls, in words ([4]; T-47D): did not change | change in 177Lu-AMBA binding (GRP receptor specific signal per cell), T47D [4]: 0% | change in 177Lu-AMBA binding (GRP receptor specific signal per cell), BT-474 [5]: 47% | GRP receptor specific signal per cell (177Lu-AMBA binding) versus untreated controls, in words ([6]; PC-3): no change | change in 177Lu-AMBA binding (GRP receptor specific signal per cell), PC-3 [6]: 0%

DO3A-monoamide-8-amino-octanoic acid-BBN (7-14)
Internalisation (40 minutes) [1]: 89% | Efflux (2 h) [1]: 28%

N-[4-[[[[4,7,10-Tris(carboxymethyl)-1,4,7,10-tetraazacyclododec-1-yl]acetyl]glycyl]amino]-3-methoxybenzoyl]-L-glutaminyl-L-tryptophyl-1-alanyl-L-valyl-glycyl-L-histidyl-L-leucyl-L-methioninamide [Compound L240]
receptor subtype preference (GRP-R versus NMB-R) [3]: selective affinity to GRP-R

N-[4-[[[[[4,7,10-Tris(carboxymethyl)-1,4,7,10-tetraazacyclododec-1-yl]acetyl]amino]acetyl]amino]benzoyl]-L-glutaminyl-L-tryptophyl-L-alanyl-L-valyl-glycyl-L-histidyl-L-leucyl-L-methioninamide [Compound L70]
Internalisation (40 minutes) [1]: 70% | Efflux (2 h) [1]: 12% | survival, Short Term Efficacy Study [2]: increased survival | survival, Long Term Efficacy Study [2]: significantly increased survival
